The values below come from patent publication US10118903B2, “Aminotriazole-based KDM1A inhibitors as epigenetic modulators” (MUSC FOUNDATION FOR RESEARCH DEVELOPMENT, priority 2014, dated 2018).

“Also recorded” adds a separate entry of the source.

The test system of assay [1] is H3K4me2 levels in Calu 6 human anaplastic lung tumor cell line. In words: H3K4 methylation in tumor cells by Western blot. Format: cell-based. The settings on record: Calu 6 cells. The procedure: To verify that C1 and C15 have epigenetic effects in tumor cells, changes in H3K4 methylation in the Calu 6 human anaplastic lung tumor cell line were monitored, as shown in FIG. 4.
Following treatment, cells were washed twice in sterile filtered cold 1×PBS. Cells were then lysed in 200 μL of lysis buffer (20 mM Tris, 150 mM NaCl, 1 mM EDTA, 1 mM EGTA, 1 mM β-glycerol, 2.5 mM sodium pyrophosphate, and 1% Triton X-100) Protease and phosphatase inhibitors were added to these buffers (1:100 dilutions of phosphatase inhibitor cocktail I and II and protease inhibitor cocktail; Sigma). The cells were then incubated on ice for 15 min, and insoluble material was pelleted by centrifugation at 4° C.
Protein concentrations were determined by Pierce BCA protein assay kit (Thermo Sci, Product #23225). Cell lysates were subjected to SDS-PAGE, and Western blot analysis was performed with the appropriate antibodies. Primary antibodies against H3K4me2, H3K4me1, and LSD1 were from Cell Signaling; Histone H3 primary antibody was from Millipore. Proteins were visualized by enhanced chemiluminescence (ECL).
(A western blot detects proteins with antibodies after separation by electrophoresis.)

The test system of another assay is mouse heart. In words: Langendorff isolated heart model, ischemia/reperfusion. The settings on record: versus vehicle. The source says:
(§1) In the Langendorff preparation, the heart is removed with preservation of a portion of the afferent and efferent blood vessels; it is then perfused in a reverse fashion via the aorta, usually with a nutrient rich, oxygenated solution (e.g. Krebs-Henseleit solution or Tyrode's solution). The backwards pressure causes the aortic valve to shut, forcing the solution into the coronary vessels, which normally supply the heart tissue with blood. This feeds nutrients and oxygen to the cardiac muscle, allowing it to continue beating for several hours after its removal from the animal. This is a useful preparation because it allows the addition of drugs (via the perfusate) and observation of their effect on the heart without the complications involved with in vivo experimentation, such as neuronal and hormonal effects from living animal (Broadley, K. J., 1970). A pressure transducer is inserted to measure a number of cardiac performance parameters including left ventricular developed pressure, left ventricular end diastolic pressure, heart rate, etc. Following the Langendorff procedure, the myocardium is cut into cross sections, and infarcted tissue is identified by the inability to take up stain; thus infarcted areas appear white, while healthy areas appear red.
The compounds described herein may be used to protect the myocardium from injury following an ischemic event. In FIG. 6, a mouse heart was subjected to ischemia by ligation of the afferent vessel in a Langendorff preparation, as described above. Prior to the induction of ischemia, hearts were either pre-treated with vehicle, verlindamycin or C1. […] In FIG. 8, the results of an experiment to measure infarcted tissue in a myocardial cross-section are shown. Results are expressed as a percentage of the area of infarct with respect to total surface area. […] The HDAC1/CoREST/LSD1 complex was pulled down with an LSD1 antibody and a Western blot for CoREST was performed.

In a further assay the test system is murine myocardium. Kind of assay: Infarct area in myocardial cross-section after induced myocardial ischemia. Format: in vivo, mouse. The settings on record: 10 mg/kg; versus vehicle.
Source text: as §1, with “Following the Langendorff procedure, the myocardium is cut into cross sections, and infarcted tissue is identified by the inability to take up stain; thus infarcted areas appear white, while healthy areas appear red.” left out
The compounds described herein may be used to protect the myocardium from injury following an ischemic event. […] Results are expressed as a percentage of the area of infarct with respect to total surface area. […]

For assay [2], the system named is HDAC1/CoREST/LSD1 complex. In words: Pull-down of HDAC1/CoREST/LSD1 complex with HDAC1 antibody, Western blot for CoREST. Format: cell-based. The settings on record: primary feline cardiomyocytes, 3 h, 5 μM. The source says: Co-immunoprecipitation (pull down) of intact protein complexes works by selecting an antibody that targets a known protein that is believed to be a member of a larger complex of proteins. By targeting this known member with an antibody it may become possible to pull the entire protein complex out of solution and thereby identify unknown members of the complex. This works when the proteins involved in the complex bind to each other tightly, making it possible to pull multiple members of the complex out of solution by latching onto one member with an antibody. This concept of pulling protein complexes out of solution is sometimes referred to as a “pull-down”. Co-immunoprecipitation is a powerful technique that is used regularly by molecular biologists to analyze protein-protein interactions. The co-repressor HDAC:CoREST:LSD1 complex was initially pulled down with an antibody for HDAC1 and a Western blot for CoREST was performed.

The subject of a further assay is LSD1:CoREST complex. In words: Pull-down of HDAC1/CoREST/LSD1 complex with LSD1 antibody, Western blot for CoREST. Format: cell-based. As to conditions: primary feline cardiomyocytes, 3 h, 1 μM; LSD1 antibody pull-down. The procedure: Co-immunoprecipitation analysis for LSD1:CoREST complex following treatment from primary rat cardiomyocytes with 5 μM and 1 μM C1 was performed as described above. Lysates pulled down with LSD1 antibody and western blotted for CoREST (n=2).

In assay [3] the target is human recombinant spermine oxidase (Homo sapiens, UniProt Q9NWM0). Kind of assay: Inhibition of spermine oxidase. Format: biochemical. As for the experimental part: The assay procedure is very similar to the assay used for LSD1, except that the reaction is conducted by human recombinant spermine oxidase. the assay for C1 and related analogues was conducted as previously described (Goodwin et al., 2011).

For a further assay, the target named is T1, human recombinant LSD1 (Homo sapiens, UniProt O60341).
T1 construct: purchased Cayman Chemical Item #700120
Kind of assay: LSD1 inhibitor screening assay (Cayman Chemical kit, fluorometric). Format: biochemical. The settings on record: 10 μM compound; Chembridge analogues table. As for the experimental part: LSD1 Inhibitor Screening Assay:
(§2) In short, 10 μM of compound was combined with the fluorometic substrate 10-acetyl-3,7-dihydroxyphenoxazine, horseradish peroxidase, human recombinant LSD1, and 100 μM dimethylated lysine at residue 4 [ARTK(diMe)[…]] (Seq. ID No: 1) for 30 mins at 37° C. Plates were read using an excitation wavelength of 535 nm and an emission wavelength of 590 nm with a SpectraMax M5 Microplate reader.

Assay [4] has as its target recombinant human LSD1/CoREST (Homo sapiens, UniProt O60341). In words: IC50 determination by dose-response curve against recombinant LSD1/CoREST. Format: biochemical. As for the experimental part: Using a dose-response curve, the IC50 of C1 and C15 were calculated.
as §2

Chain of human recombinant spermine oxidase (Q9NWM0 whole entry): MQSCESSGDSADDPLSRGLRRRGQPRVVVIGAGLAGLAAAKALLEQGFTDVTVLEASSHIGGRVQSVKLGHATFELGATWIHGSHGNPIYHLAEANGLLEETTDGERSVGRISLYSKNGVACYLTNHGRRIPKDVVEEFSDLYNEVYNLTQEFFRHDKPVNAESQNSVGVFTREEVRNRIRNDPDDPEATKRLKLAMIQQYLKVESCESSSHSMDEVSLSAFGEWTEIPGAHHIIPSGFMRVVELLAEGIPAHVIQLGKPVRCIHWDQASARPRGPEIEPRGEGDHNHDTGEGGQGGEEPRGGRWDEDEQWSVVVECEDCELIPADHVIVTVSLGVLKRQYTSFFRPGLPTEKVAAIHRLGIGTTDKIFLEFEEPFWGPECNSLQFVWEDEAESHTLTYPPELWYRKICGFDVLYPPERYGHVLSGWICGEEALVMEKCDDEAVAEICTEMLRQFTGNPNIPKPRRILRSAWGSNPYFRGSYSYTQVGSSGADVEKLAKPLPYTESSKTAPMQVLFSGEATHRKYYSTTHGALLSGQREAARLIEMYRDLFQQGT

One may read the IC50 as the concentration at which inhibition is half-maximal. For the molecule `Nc1nnc(NCc2c(Cl)cccc2Oc2ccccc2)[nH]1` [Compound C1, N^3-(2-chloro-6-phenoxybenzyl)-4H-1,2,4-triazole-3,5-diamine], the “effect on H3K4 methylation” value in assay [1] (24 or 48 hours) was “did not appear to have a significant effect”. Further, in the assay with mouse heart (1 hour pre-treatment with 1.0 μM), the “left ventricular end diastolic pressure” value is on record as “reduced to near-normal levels”. Besides, in the assay on mouse heart (pre-treatment before ischemia, after reperfusion), the “left ventricular developed pressure” value is on record as “restored to nearly normal levels”. Also, the “infarct area as a percentage of the total left ventricular area” value with murine myocardium is “most effective in limiting the spread of infarct; also recorded: significantly more effective than treatment with vehicle”. For the same molecule, the “association of HDAC1 and CoREST” value in assay [2] was “disrupted the association of HDAC1 and CoREST”. Moreover, the “association between LSD1 and CoREST” value in the assay with LSD1:CoREST complex is “disrupted the association between LSD1 and CoREST”. Moreover, the “mode of inhibition of spermine oxidase” value in assay [3] is “competitive inhibitor”. Besides, the “inhibition of spermine oxidase compared with verlindamycin” value in assay [3] (assayed between 0.1 and 1.0 μM) was “improved inhibition of spermine oxidase over verlindamycin”. In assay [3] (assayed between 0.1 and 1.0 μM, read-out: IC50 against spermine oxidase (SMOX)), the IC50 was determined as 0.04 µM.
As a reminder, the inhibition is the drop in the measured response relative to a control, in per cent. On to `COc1ccccc1CNc1n[nH]c(NCc2ccccc2OC)n1` [Compound C15, N^3,N^5-bis(2-methoxybenzyl)-1H-1,2,4-triazole-3,5-diamine], for which the inhibition at 10 µM on human recombinant LSD1 is 74.9 ± 1.9%. Also, in assay [4], the IC50 came out at 2.2 µM. In addition, the H3K4me2 levels entry in assay [1] (72 hours) is “significant, dose-dependent increase”. Further, the “association of HDAC1 and CoREST” value in assay [2] is “disrupted the association of HDAC1 and CoREST”. Moreover, the “inhibition of spermine oxidase compared with verlindamycin” value in assay [3] (assayed between 0.1 and 1.0 μM) was “improved inhibition of spermine oxidase over verlindamycin”.
